Assay results from US10807959B2, “WDR5-MLL1 inhibitors and modulators” (Vanderbilt University, priority 2018, dated 2020).

biological target: WDR5 (Homo sapiens (Human), UniProt P61964); test: TR-FRET binding assay, displacement of 10mer-Thr-FAM probe from His-tagged WDR5; settings: not given
Protocol: The LanthaScreenTM Elite Tb-anti-HIS Antibody from ThermoFisher Scientific was used for this purpose. […] The ratio of the 520 and 495 signals are then utilized to generate a dose-response curve to calculate an IC50 value. […] WDR[…] tag protein is used at 2 nM.

SMILES	Ki [nM]
O=C(NCc1ccc(Cl)c(Cl)c1)c1cc(CNC2=NCCN2)cc(-c2ccc(F)nc2F)n1 [Example C2]	0.311
O=C(NCc1ccc(Cl)c(Cl)c1)c1cc(F)c(F)c(CNC2=NCCN2)c1 [Example B33]	0.444
O=C(NCc1ccc(Cl)c(Cl)c1)c1cc(CNC2=NCCN2)ccc1F [Example B36, N-(3,4-dichlorobenzyl)-5-(((4,5-dihydro-1H-imidazol-2-yl)amino)methyl)-2-fluorobenzamide]	0.917
Cc1cc(CNC(=O)c2ccc(F)c(CNC3=NCCN3)c2)ccc1Cl [Example B47]	0.189
Cc1ccncc1-c1cc(CNC2=NCCN2)cc(C(=O)NCc2cc(Cl)cc(Cl)c2)c1 [Example B87]	0.198
Cc1cc(-c2cc(CNC3=NCCN3)cc(C(=O)NCc3cc(Cl)ccn3)c2)cc(C)n1 [Example B111]	0.0875
Cc1ccncc1-c1cc(CNC2=NCCN2)cc(C(=O)NC(C2CC2)C2CC2)c1 [Example B93]	0.759
Cc1cc(-c2cc(CNC3=NCCN3)cc(C(=O)NCc3ccc(Cl)c(C)c3)c2)ccn1 [Example B84]	0.118
COc1cc(CNC(=O)c2cc(CNC3=NCCN3)cc(-c3ccc(F)nc3C)c2)cc(OC)c1 [Example B63]	0.131

same assay, conditions: Inhibition of WDR5 by TR-FRET assay

SMILES	Ki [nM]
Cc1cnc(F)c(-c2cc(CNC3=NCCN3)cc(C(=O)NCc3ccc(Cl)c(C)c3)c2)c1 [Example 42, N-(4-chloro-3-methylbenzyl)-3-(((4,5-dihydro-1H-imidazol-2-yl)amino)methyl)-5-(2-fluoro-5-methylpyridin-3-yl)benzamide]	< 0.1
COc1cc(CNC(=O)c2cc(CNC3=NCCC3)cc(-c3cc(C)c(F)cc3C)c2)cc(OC)c1 [Example 62, 5-(((3,4-Dihydro-2H-pyrrol-5-yl)amino)methyl)-N-(3,5-dimethoxybenzyl)-4′-fluoro-2′,5′-dimethyl-[1,1′-biphenyl]-3-carboxamide]	0.21
Cc1ccnc(C(NC(=O)c2cc(CNC3=NCCC3)cc(-c3ccc(F)cc3C)n2)C2CC2)c1 (stereo not shown) [Example 95, N-(Cyclopropyl(4-methylpyridin-2-yl)methyl)-4-(((3,4-dihydro-2H-pyrrol-5-yl)amino)methyl)-6-(4-fluoro-2-methylphenyl)picolinamide]	8.6
Cc1cc(-c2cc(CNC3=NCCN3)cc(C(=O)NCc3nccc(C)n3)c2)ccn1 [Example 29, 3-(((4,5-Dihydro-1H-imidazol-2-yl)amino)methyl)-5-(2-methylpyridin-4-yl)-N-((4-methylpyrimidin-2-yl)methyl)benzamide]	13
Cc1ncc(CNC(=O)c2cc(CNC3=NCCN3)cc(-c3ccc(F)nc3C)c2)cn1 [Example 37, 3-(((4,5-dihydro-1H-imidazol-2-yl)amino)methyl)-5-(6-fluoro-2-methylpyridin-3-yl)-N-((2-methylpyrimidin-5-yl)methyl)benzamide]	2.1
Cc1nc(F)ccc1-c1cc(CNC2=NCCN2)cc(C(=O)NCc2ccc(Cl)c(F)c2)n1 [Example 73, N-(4-Chloro-3-fluorobenzyl)-4-(((4,5-dihydro-1H-imidazol-2-yl)amino)methyl)-6′-fluoro-2′-methyl-[2,3′-bipyridine]-6-carboxamide]	0.43
Cc1cc(CNC(=O)c2cc(CNC3=NCCN3)cc(-c3ccc(F)nc3C)c2)ccc1Cl [Example 5, N-(4-chloro-3-methylbenzyl)-3-(((4,5-dihydro-1H-imidazol-2-yl)amino)methyl)-5-(6-fluoro-2-methylpyridin-3-yl)benzamide]	0.02
COc1ccnc(CNC(=O)c2cc(CNC3=NCCN3)cc(-c3ccc(F)cc3C(F)(F)F)c2)c1 [Example 47, 5-(((4,5-dihydro-1H-imidazol-2-yl)amino)methyl)-4′-fluoro-N-((4-methoxypyridin-2-yl)methyl)-2′-(trifluoromethyl)-[1,1′-biphenyl]-3-carboxamide]	< 0.1
Cc1ccnc(C(NC(=O)c2cc(CNC3=NCCN3)cc(-c3ccc(F)nc3C)c2)C2CC2)c1 (stereo not shown) [Example 9, N-(Cyclopropyl(4-methylpyridin-2-yl)methyl)-3-(((4,5-dihydro-1H-imidazol-2-yl)amino)methyl)-5-(6-fluoro-2-methylpyridin-3-yl)benzamide]	< 0.1
COc1cc(OC)cc(C(C)NC(=O)c2cc(Cn3ccnc3C)cc(-c3ccc(F)c(C(N)=O)c3)n2)c1 (stereo not shown) [Example 161, 6-(3-Carbamoyl-4-fluorophenyl)-N-(1-(3,5-dimethoxyphenyl)ethyl)-4-((2-methyl-1H-imidazol-1-yl)methyl)picolinamide]	> 33
COc1cc(OC)cc(C(C)NC(=O)c2cc(Cn3ccnc3C)cc(-c3ccc(F)c(CO)c3)n2)c1 (stereo not shown) [Example 163, N-(1-(3,5-dimethoxyphenyl)ethyl)-6-(4-fluoro-3-(hydroxymethyl)phenyl)-4-((2-methyl-1H-imidazol-1-yl)methyl)picolinamide]	> 33
COc1cc(OC)cc(C(C)NC(=O)c2cc(CNC3=NCCN3)cc(-c3ccc(F)nc3C)n2)c1 (stereo not shown) [Example 75, 4-(((4,5-Dihydro-1H-imidazol-2-yl)amino)methyl)-N-(1-(3,5-dimethoxyphenyl)ethyl)-6′-fluoro-2′-methyl-[2,3′-bipyridine]-6-carboxamide]	0.8
COc1ccnc(CNC(=O)c2cc(CNC3=NCCN3)cc(-c3cnccc3C)c2)c1 [Example 19, 3-(((4,5-Dihydro-1H-imidazol-2-yl)amino)methyl)-N-((4-methoxypyridin-2-yl)methyl)-5-(4-methylpyridin-3-yl)benzamide]	0.45
Cc1ccnc(C(NC(=O)c2cc(CNC3=NCCN3)cc(-c3cc(C)cnc3F)c2)C2CC2)c1 (stereo not shown) [Example 39, N-(cyclopropyl(4-methylpyridin-2-yl)methyl)-3-(((4,5-dihydro-1H-imidazol-2-yl)amino)methyl)-5-(2-fluoro-5-methylpyridin-3-yl)benzamide]	< 0.1
Cc1nccn1Cc1cc(OC2CCC2)cc(C(=O)NCc2ccc(Cl)c(Cl)c2)c1 [Example 143, 3-Cyclobutoxy-N-(3,4-dichlorobenzyl)-5-((2-methyl-1H-imidazol-1-yl)methyl)benzamide]	0.43
Cc1cc(-c2cc(CNC(=N)N)cc(C(=O)NCc3cc(F)cc(Cl)c3)c2)ccn1 [Example 100, N-(3-Chloro-5-fluorobenzyl)-3-(guanidinomethyl)-5-(2-methylpyridin-4-yl)benzamide]	2.4
COc1ccnc(CNC(=O)c2cc(CNC3=NCCN3)cc(-c3cc(C(C)C)ccc3OC)c2)c1 [Example 45, 5-(((4,5-dihydro-1H-imidazol-2-yl)amino)methyl)-5′-isopropyl-2′-methoxy-N-((4-methoxypyridin-2-yl)methyl)-[1,1′-biphenyl]-3-carboxamide]	1.01
COc1ncc(Cl)cc1-c1cc(CNC2=NCCN2)cc(C(=O)NCc2ccc(Cl)c(Cl)c2)n1 [Example 86, 5′-Chloro-N-(3,4-dichlorobenzyl)-4-(((4,5-dihydro-1H-imidazol-2-yl)amino)methyl)-2′-methoxy-[2,3′-bipyridine]-6-carboxamide]	< 0.1
Cc1ccnc(C(NC(=O)c2cc(CNC3=NCCN3)cc(-c3cnccc3C)c2)C2CC2)c1 (stereo not shown) [Example 25, N-(cyclopropyl(4-methylpyridin-2-yl)methyl)-3-(((4,5-dihydro-1H-imidazol-2-yl)amino)methyl)-5-(4-methylpyridin-3-yl)benzamide]	0.2
Cc1cc(-c2cc(CNC3=NCCN3)cc(C(=O)NCc3ccc(Cl)c(Cl)c3)n2)ccn1 [Example 82, N-(3,4-Dichlorobenzyl)-4-(((4,5-dihydro-1H-imidazol-2-yl)amino)methyl)-2′-methyl-[2,4′-bipyridine]-6-carboxamide]	0.46
Cc1cnc(CNC(=O)c2cc(CNC3=NCCN3)cc(-c3ccc(F)nc3C)n2)nc1 [Example 77, 4-(((4,5-Dihydro-1H-imidazol-2-yl)amino)methyl)-6′-fluoro-2′-methyl-N-((5-methylpyrimidin-2-yl)methyl)-[2,3′-bipyridine]-6-carboxamide]	33
CC1(NC(=O)c2cc(Cn3ccnc3)cc(-c3ccc(F)cc3Cl)c2)CCCC1 [Example 138, 5-((1H-Imidazol-1-yl)methyl)-2′-chloro-4′-fluoro-N-(1-methylcyclopentyl)-[1,1′-biphenyl]-3-carboxamide]	50
COc1ccc(CNC(=O)c2cc(CNC(=N)N)cc(-c3ccnc(C)c3)c2)cc1Cl [Example 101, N-(3-Chloro-4-methoxybenzyl)-3-(guanidinomethyl)-5-(2-methylpyridin-4-yl)benzamide]	2.1
Cc1nc(F)ccc1-c1cc(CNC2=NCCN2)cc(C(=O)NCc2ccc(=O)[nH]c2)n1 [Example 98, 4-(((4,5-dihydro-1H-imidazol-2-yl)amino)methyl)-6′-fluoro-2′-methyl-N-((6-oxo-1,6-dihydropyridin-3-yl)methyl)-[2,3′-bipyridine]-6-carboxamide]	23
COc1ncc(C)cc1-c1cc(CNC2=NCCN2)cc(C(=O)NCc2ccc(Cl)c(Cl)c2)n1 [Example 83, N-(3,4-Dichlorobenzyl)-4-(((4,5-dihydro-1H-imidazol-2-yl)amino)methyl)-2′-methoxy-5′-methyl-[2,3′-bipyridine]-6-carboxamide]	0.31
COc1cc(CNC(=O)c2cc(CNC3=NCCC3)cc(-c3cccn3C)c2)cc(OC)c1 [Example 58, 3-(((3,4-Dihydro-2H-pyrrol-5-yl)amino)methyl)-N-(3,5-dimethoxybenzyl)-5-(1-methyl-1H-pyrrol-2-yl)benzamide]	5.8
COc1ccc(CNC(=O)c2cc(CNC3=NCCN3)cc(-c3ccc(F)nc3C)c2)cc1OC [Example 4, 3-(((4,5-Dihydro-1H-imidazol-2-yl)amino)methyl)-N-(3,4-dimethoxybenzyl)-5-(6-fluoro-2-methylpyridin-3-yl)benzamide]	0.36
COc1cc(CN(C)C(=O)c2cc(Cn3ccnc3)cc(-c3ccc(F)nc3C)c2)cc(OC)c1 [Example 140, 3-((1H-Imidazol-1-yl)methyl)-N-(3,5-dimethoxybenzyl)-5-(6-fluoro-2-methylpyridin-3-yl)-N-methylbenzamide]	95
